Assay: release of SDS from dried SDS-dipped non-woven disk in 10 ml syringe, water gravity fed
Type: physicochemical
Settings: non-woven dipped in 20% SDS solution, 3 mm thick disk, no excipients
Description: It was an unexpected result that, without the use of any excipients, a non-woven material could be dipped into an SDS solution to achieve significant loading and release of SDS. Specifically, a piece of soft non-woven material was dipped in a 20% solution of SDS, then dried on a drying rack. After drying, the material was hard and stiff, and felt like a piece of cardboard. It appeared unlikely that the resulting material would even be permeable to water.

In the case of `CCCCCCCCCCCCOS(=O)(=O)[O-].[Na+]` [SDS, sodium dodecyl sulphate], the “release of SDS into water” value is reported as “rapidly released”.

Source: US8357117B2, “Device and method for delivering an agent into breast milk while breastfeeding” (Family Health International, priority 2008, dated 2013)
